According to patent US7169932B2 (priority 2001, dated 2007):
Values joined by “and” are separate entries in the source; they are usually repeats but may differ in a detail not shown here. Equal values may be shown once. Read-outs that look alike come from different tables or passages of the source.

Columns and labels:
46I, 84V, 90M virus = experiment: Phenotypic susceptibility assay at Virologic, Inc.; assay type: cell-based, HIV-1; details: Human immunodeficiency virus 1
Protocol: (§1) Compounds were tested in phenotypic susceptibility assays at Virologic, Inc., (See Petropoulos C. J., Parkin N. T., Limoli K. L., Lie Y. S., Wrin T., Huang W., Tian H., Smith D., Winslow G. A., Capon D J, Whitcomb J M. 2000, “A novel phenotypic drug susceptibility assay for human immunodeficiency virus type 1,” Antimicrob Agents Chemother 44(4):920–928) or using the assay described here. MT-2 cells were infected with either HIV-1 NL4–3 or HIV-1 NL4–3(184V/L90M) and incubated in the presence of serial 0.5 log dilutions of test compounds. Three days later, culture supernatants were collected and virus production, as determined by p24 ELISA, was assayed. Percent inhibition was calculated as p24 concentration in compound-treated samples as compared to infected, compound-free controls. Inhibition of viral replication is determined by measuring reduction in HIV p24 present in the culture supernatant, using a Beckman-Coulter p24 HIV-1 Ag EIA kit and following the supplied protocol. Absorbance is read on a MRX microplate reader (Dynex Technologies). The EC50 was calculated as the concentration of compound that effected a decrease in the p24 production by infected, compound-treated cells to 50% of that produced by infected, compound-free cells.

HIV-1 = experiment: Cytopathic Effect (CPE) Inhibition Assay (XTT dye reduction); assay type: cell-based; details: Human immunodeficiency virus 1, 144 h, read-out: Ave CPE EC50 (mM), protection of infected cells, six days, XTT
Outline: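 CEM-SS or MT-2 cells infected with HIV-1 RF or NL4–3 (moi 0.025–0.819), 2×10^4 cells/well, incubated six days with half-log compound dilutions. Viability read by XTT formazan at 450 nm; EC50 is the concentration restoring 50% of uninfected-control formazan, CC50 from uninfected treated cells, therapeutic index CC50/EC50.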

HIV-1 protease (Q7S) = target: T1, HIV-1 protease (Q7S) (Human immunodeficiency virus type 1 group M subtype B, UniProt P04585, Q495S); experiment: HIV-1 Protease RET Assay; assay type: biochemical; details: RET assay, Q7S enzyme, pH 4.8, 37 C
T1 construct: made in house
Outline: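 Ki values came from a RET assay on refolded Q7S protease (2 nM active dimer) cleaving RE(EDANS)SQNYPIVQK(DABCYL)R at 5 μM, read at ex 340/em 490 nm. Reactions ran 12 min at 37 C in 0.1M sodium acetate pH 4.8, 1M NaCl, 5 mM DTT, 10% DMSO; curves were fit with the Morrison tight-binding equation.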

[1] = tested on: HIV-1 NL4–3 or HIV-1 NL4–3(184V/L90M); experiment: Susceptibility assay, p24 ELISA in infected MT-2 cells; assay type: cell-based; details: Human immunodeficiency virus 1, MT2, 72 h, read-out: EC50 or IC50 (mM)
Protocol: T-cell lines, CEM-SS, and MT-2, and viruses HIV-1 RF and HIV-1 NL4–3 (pNL4–3) were obtained from the National Institutes of Health (AIDS Research and Reference Reagent Program, Bethesda, Md.).
as §1

Compound	IC50 (46I, 84V, 90M virus) [nM]	EC50 (HIV-1) [nM]	Ki (HIV-1 protease (Q7S); Ave. Ki (nM))	melting point [°C]	EC50 [1] [nM]	Ki (HIV-1 protease (Q7S); read-out: Ave. Ki) [nM]
Cc1nc(C)c(C(=O)N[C@@H](Cc2ccccc2)[C@H](O)C(=O)N2CSC(C)(C)[C@H]2C(=O)NCc2ccccc2C)s1 [Example B11, 2,4-Dimethyl-thiazole-5-carboxylic acid {1-benzyl-3-[5,5-dimethyl-4-(2-methyl-benzylcarbamoyl)-thiazolidin-3-yl]-2-hydroxy-3-oxo-propyl}-amide]	1720	1180	1.2 nM			
CCCN(C)C(=O)[C@H]1N(C(=O)[C@@H](O)[C@H](Cc2ccccc2)NC(=O)c2cccc(O)c2C)CSC1(C)C [Example A46, (R)-3-((2S,3S)-2-Hydroxy-3-{[1-(3-hydroxy-2-methyl-phenyl)-methanoyl]-amino}-4-phenyl-butanoyl)-5,5-dimethyl-thiazolidine-4-carboxylic acid methyl-propyl-amide]		91	0.31 nM	108 to 110	790	
Cc1c(O)cccc1C(=O)N[C@@H](Cc1ccccc1)[C@H](O)C(=O)N1CSC(C)(C)[C@H]1C(=O)NCc1c(F)cccc1C(F)(F)F [Example A24, (R)-3-((2S,3S)-2-Hydroxy-3-{[1-(3-hydroxy-2-methyl-phenyl)-methanoyl]-amino}-4-phenyl-butanoyl)-5,5-dimethyl-thiazolidine-4-carboxylic acid fluoro-trifluoromethyl-benzylamide]		104	0.18 nM		831	
C=CCNC(=O)[C@H]1N(C(=O)[C@@H](O)[C@H](Cc2ccccc2)NC(=O)c2cccc(O)c2C)CSC1(C)C [Example A14, (R)-3-((2S,3S)-2-Hydroxy-3-{[1-(3-hydroxy-2-methyl-phenyl)-methanoyl]-amino}-4-phenyl-butanoyl)-5,5-dimethyl-thiazolidine-4-carboxylic acid allylamide]	71	52	0.44 nM			
Cc1c(O)cccc1C(=O)N[C@@H](Cc1ccccc1)[C@H](O)C(=O)N1CSC(C)(C)[C@H]1C(=O)NCc1cccc(O)c1 [Example A42, (R)-3-((2S,3S)-2-Hydroxy-3-{[1-(3-hydroxy-2-methyl-phenyl)-methanoyl]-amino}-4-phenyl-butanoyl)-5,5-dimethyl-thiazolidine-4-carboxylic acid 3-hydroxy-benzylamide]		126	0.23 nM		307	
Cc1ccccc1CNC(=O)[C@H]1N(C(=O)[C@@H](O)[C@H](Cc2ccccc2)NC(=O)c2cccc(O)c2C)COC1(C)C [Example C6, (S)-3-((2S,3S)-2-Hydroxy-3-{[1-(3-hydroxy-2-methyl-phenyl)-methanoyl]-amino}-4-phenyl-butanoyl)-5,5-dimethyl-oxazolidine-4-carboxylic acid 2-methyl-benzylamide]		164	< 0.1 nM		1480	
Cc1ccccc1CNC(=O)C1N(C(=O)C(O)C(Cc2ccccc2)NC(=O)c2cccc(C)c2C)CSC1(C)C (stereo not drawn) [Example B17, 3-[3-(2,3-Dimethyl-benzoylamino)-2-hydroxy-4-phenyl-butyryl]-5,5-dimethyl-thiazolidine-4-carboxylic acid 2-methyl-benzylamide]		534	0.42 nM		1580	
Cc1c(O)cccc1C(=O)N[C@@H](Cc1ccccc1)[C@H](O)C(=O)N1CSC(C)(C)[C@H]1C(=O)NCc1ccccc1O [Example A44, (R)-3-((2S,3S)-2-Hydroxy-3-{[1-(3-hydroxy-2-methyl-phenyl)-methanoyl]-amino}-4-phenyl-butanoyl)-5,5-dimethyl-thiazolidine-4-carboxylic acid 2-hydroxy-benzylamide]		22	0.14 nM		472	
C/C=C/CNC(=O)[C@H]1N(C(=O)[C@@H](O)[C@H](Cc2ccccc2)NC(=O)c2cccc(O)c2C)CSC1(C)C [Example A38, (R)-3-((2S,3S)-2-Hydroxy-3-{[1-(3-hydroxy-2-methyl-phenyl)-methanoyl]-amino}-4-phenyl-butanoyl)-5,5-dimethyl-thiazolidine-4-carboxylic acid (E)-but-2-enylamide]		78	0.17 nM		401	
Cc1ccccc1CN(C)C(=O)[C@H]1N(C(=O)[C@@H](O)[C@H](Cc2ccccc2)NC(=O)c2cccc(O)c2C)CSC1(C)C [Example A7, 3-[2-Hydroxy-3-(3-hydroxy-2-methyl-benzoylamino)-4-phenyl-butyryl]-5,5-dimethyl-thiiazolidine-4-carboxylic acid methyl-(2-methyl-benzyl)-amide]		104	0.49 nM		832	
Cc1ccccc1CNC(=O)[C@H]1N(C(=O)[C@@H](O)[C@H](Cc2ccccc2)NC(=O)N2CC[C@H](O)C2)CSC1(C)C (stereo in doubt) [Example B8, 3-(2-hydroxy-3-{[1-(3-hydroxy-pyrrolidin-yl)-methanoyl]-amino}-4-phenyl-butanoyl)-5,5-dimethyl-thiazolidine-4-carboxylic acid-2-methyl-benzylamide]	405		0.31 nM and 1.5 nM			
Cc1ccccc1CNC(=O)[C@H]1N(C(=O)[C@@H](O)[C@H](Cc2ccccc2)NC(=O)c2ccccc2C)CSC1(C)C [Example B16, 3-[2-Hydroxy-3-(2-methyl-benzoylamino)-4-phenyl-butyryl]-5,5-dimethyl-thiazolidine-4-carboxylic acid 2-methyl-benzylamide]		298	< 0.1 nM		1750	
COCCCC(=O)[C@H]1N(C(=O)[C@@H](O)[C@H](Cc2ccccc2)NC(=O)c2cccc(O)c2C)CSC1(C)C [Example D3, N-{1-Benzyl-2-hydroxy-3-[4-(4-methoxy-butanoyl)-5,5-dimethyl-thiazolidin-3-yl]-3-oxo-propyl}-3-hydroxy-2-methyl-benzamide]		162	0.5 nM		1950	
C#CCNC(=O)[C@H]1N(C(=O)[C@@H](O)[C@H](Cc2ccccc2)NC(=O)c2cccc(O)c2C)CSC1(C)C [Example A17, 3-(2-Hydroxy-3-{[1-(3-hydroxy-2-methyl-phenyl)-methanoyl]-amino}-4-phenyl-butanoyl)-5,5-dimethyl-thiazolidine-4-carboxylic acid prop-2-ynylamide]	102	45	< 0.1 nM			
Cc1ccccc1CNC(=O)C1N(C(=O)C(O)C(Cc2ccccc2)NC(=O)c2c(C)c(=O)on2C)CSC1(C)C (stereo not drawn) [Example B19, 2,4-Dimethyl-5-oxo-2,5-dihydro-isoxazole-3-carboxylic acid {1-benzyl-3-[5,5-dimethyl-4-(2-methyl-benzylcarbamoyl)-thiazolidin-3-yl]-2-hydroxy-3-oxo-propyl}-amide]		124	< 0.1 nM		1370	
CC(C)=CCNC(=O)[C@H]1N(C(=O)[C@@H](O)[C@H](Cc2ccccc2)NC(=O)c2cccc(O)c2C)CSC1(C)C [Example A32, (R)-3-((2S,3S)-2-Hydroxy-3-{[1-(3-hydroxy-2-methyl-phenyl)-methanoyl]-amino}-4-phenyl-butanoyl)-5,5-dimethyl-thiazolidine-4-carboxylic acid (3-methyl-but-2-enyl)-amide]		45	< 0.1 nM		486	
C=CCNC(=O)[C@H]1N(C(=O)[C@@H](O)[C@H](Cc2ccccc2)NC(=O)c2cc(C)cc(O)c2C)CSC1(C)C [Example D4, (R)-3-[(2S, 3S)-2-Hydroxy-3-(3-hydroxy-2,5-dimethyl-benzoylamino)-4-phenyl-butyryl]-5,5-dimethyl-thiazolidine-4-carboxylic acid allylamide]		16			1950	0.7
C/C=C(\C)CNC(=O)[C@H]1N(C(=O)[C@@H](O)[C@H](Cc2ccccc2)NC(=O)c2cccc(O)c2C)CSC1(C)C [Example A35, (R)-3-((2S,3S)-2-Hydroxy-3-{[1-(3-hydroxy-2-methyl-phenyl)-methanoyl]-amino}-4-phenyl-butanoyl)-5,5-dimethyl-thiazolidine-4-carboxylic acid ((E)-2-methyl-but-2-enyl)-amide]		17	< 0.1 nM		63	
